Like-named read-outs stand apart in the source and are kept apart here.
Test: Study .4: 4-week treatment of diabetic patients, once daily, pharmacokinetic parameters
Assay type: in vivo, human
Conditions: for AUCτ,ss,norm Max / AUCτ,ss,norm Median / AUCτ,ss,norm Min / AUCτ,ss,norm gMean: Study .4, steady state, dose-normalized
Experimental: 5. Pharmacokinetic Parameters
The pharmacokinetic parameters of pharmaceutical compositions and pharmaceutical dosage forms are assessed in healthy volunteer and patient populations. In the studies shown below, the participants fasted on the day of sampling, unless as otherwise stated (see for example study .3). The active substance in the studies below is the compound (I.9), preferably in the crystalline form (I.9X), and the dose of active ingredient is indicated in mg.
For the quantification of plasma concentrations of the active ingredient, 2.7 mL of blood was collected and transferred into an EDTA (ethylendiaminetetraacetic acid)-anticoagulant blood drawing tube. The EDTA-anticoagulated blood samples were centrifuged immediately after collection. Centrifugation lasted for about 10 minutes (at about 2,000×gf to 4,000×gf) at 4-8° C. or within 30 minutes while stored on ice. Concentrations of active substance in EDTA human plasma samples were quantitated using a HPLC/MS/MS method. The assay method comprised a solid phase supported liquid-liquid extraction of human plasma coupled with HPLC/MS/MS determination of the extracted samples. The HPLC/MS/MS assay was validated for the range of 1.11 to 1110 nM in human plasma.
Study .4: 4-week treatment of a diabetic patient population of N=78, once daily administration for 4 weeks. Patients were administered tablets as described in Example 10 (section Examples of formulations).
AUC0-inf:area under the concentration-time curve of the analyte in plasma over the time interval from 0 extrapolated to infinity.
Cmax: maximum concentration of the analyte in plasma.
Tmax: time from dosing to maximum concentration.
AUCT,SS:area under the concentration-time curve of the analyte in plasma over the time interval from 0 to 24 h at steady-state.
Cmax,ss:maximum concentration of the analyte in plasma at steady state over a uniform dosing interval.
tmax,ss:time from dosing to maximum concentration at steady state.

[1] = 10 mg once daily, steady state, Study .4, fasted
[2] = 10 mg single dose, Study .4, fasted
[3] = 25 mg once daily, steady state, Study .4, fasted
[4] = 25 mg single dose, Study .4, fasted

- AUCτ,ss Max [1]: 2.6 µM·h
- AUCτ,ss Min [1]: 1350 nmol·h/L
- tmax,ss Max [1]: 4.00 h
- tmax,ss Min [1]: 59 min
- Cmax (10 mg once daily, steady state, Study .4, fasted, read-out: Cmax,ss Max): 367 nM
- AUC0-inf Max [2]: 2.41 µM·h
- AUC0-inf Min [2]: 1390 nmol·h/L
- AUC0-inf,norm Max [2]: 241 nmol·h/L/mg
- AUC0-inf,norm Median [2]: 173 nmol·h/L/mg
- AUC0-inf,norm Min [2]: 139 nmol·h/L/mg
- AUC0-inf,norm gMean [2]: 172 nmol·h/L/mg
- tmax Max [2]: 2.50 h
- tmax Min [2]: 60 min
- Cmax (10 mg single dose, Study .4, fasted, read-out: Cmax Max): 796 nM
- Cmax (10 mg single dose, Study .4, fasted, read-out: Cmax Min): 205 nM
- AUCτ,ss Max [3]: 7.64 µM·h
- AUCτ,ss Min [3]: 2790 nmol·h/L
- tmax,ss Max [3]: 3.02 h
- tmax,ss Min [3]: 45 min
- AUC0-inf Max [4]: 7.17 µM·h
- AUC0-inf Min [4]: 2840 nmol·h/L
- AUC0-inf,norm Max [4]: 287 nmol·h/L/mg
- AUC0-inf,norm Median [4]: 171 nmol·h/L/mg
- AUC0-inf,norm Min [4]: 114 nmol·h/L/mg
- AUC0-inf,norm gMean [4]: 170 nmol·h/L/mg
- tmax Min [4]: 45 min
- Cmax (25 mg single dose, Study .4, fasted, read-out: Cmax Max): 1030 nM
- Cmax (25 mg single dose, Study .4, fasted, read-out: Cmax Min): 496 nM
- AUCτ,ss,norm Max (dose 10 mg, plasma): 260 nmol·h/L/mg
- AUCτ,ss,norm Median (dose 10 mg, plasma): 184 nmol·h/L/mg
- AUCτ,ss,norm Min (dose 10 mg, plasma): 135 nmol·h/L/mg
- AUCτ,ss,norm gMean (dose 10 mg, plasma): 185 nmol·h/L/mg
- AUCτ,ss,norm Max (dose 25 mg, plasma): 306 nmol·h/L/mg
- AUCτ,ss,norm Median (dose 25 mg, plasma): 179 nmol·h/L/mg
- AUCτ,ss,norm Min (dose 25 mg, plasma): 112 nmol·h/L/mg
- AUCτ,ss,norm gMean (dose 25 mg, plasma): 186 nmol·h/L/mg
- AUC (human, plasma, oral, 10 mg, 10 mg once daily, steady state, Study .4, fasted, read-out: AUCτ,ss Mean): 1.87 µM·h
- AUC (human, plasma, oral, 10 mg, 10 mg once daily, steady state, Study .4, fasted, read-out: AUCτ,ss Median): 1.84 µM·h
- AUC (human, plasma, oral, 10 mg, 10 mg once daily, steady state, Study .4, fasted, read-out: AUCτ,ss gMean): 1.85 µM·h
- Cmax (human, plasma, oral, 10 mg, 10 mg once daily, steady state, Study .4, fasted, read-out: Cmax,ss Mean): 259 nM
- Cmax (human, plasma, oral, 10 mg, 10 mg once daily, steady state, Study .4, fasted, read-out: Cmax,ss Median): 251 nM
- Cmax (human, plasma, oral, 10 mg, 10 mg once daily, steady state, Study .4, fasted, read-out: Cmax,ss gMean): 252 nM
- Tmax (human, plasma, oral, 10 mg, 10 mg once daily, steady state, Study .4, fasted, read-out: tmax,ss Mean): 1.72 h
- Tmax (human, plasma, oral, 10 mg, 10 mg once daily, steady state, Study .4, fasted, read-out: tmax,ss Median): 1.5 h
- Tmax (human, plasma, oral, 10 mg, 10 mg once daily, steady state, Study .4, fasted, read-out: tmax,ss g Mean): 1.61 h
- AUC(0-inf) (human, plasma, oral, 10 mg, 10 mg single dose, Study .4, fasted, read-out: AUC0-inf Mean): 1.74 µM·h
- AUC(0-inf) (human, plasma, oral, 10 mg, 10 mg single dose, Study .4, fasted, read-out: AUC0-inf Median): 1.73 µM·h
- AUC(0-inf) (human, plasma, oral, 10 mg, 10 mg single dose, Study .4, fasted, read-out: AUC0-inf gMean): 1.72 µM·h
- Cmax (human, plasma, oral, 10 mg, 10 mg single dose, Study .4, fasted, read-out: Cmax Mean): 309 nM
- Cmax (human, plasma, oral, 10 mg, 10 mg single dose, Study .4, fasted, read-out: Cmax Median): 271 nM
- Cmax (human, plasma, oral, 10 mg, 10 mg single dose, Study .4, fasted, read-out: Cmax gMean): 291 nM
- Tmax (human, plasma, oral, 10 mg, 10 mg single dose, Study .4, fasted, read-out: tmax Mean): 1.5 h
- Tmax (human, plasma, oral, 10 mg, 10 mg single dose, Study .4, fasted, read-out: tmax Median): 1.5 h
- Tmax (human, plasma, oral, 10 mg, 10 mg single dose, Study .4, fasted, read-out: tmax gMean): 1.44 h
- AUC (human, plasma, oral, 25 mg, 25 mg once daily, steady state, Study .4, fasted, read-out: AUCτ,ss Mean): 4.74 µM·h
- AUC (human, plasma, oral, 25 mg, 25 mg once daily, steady state, Study .4, fasted, read-out: AUCτ,ss Median): 4.48 µM·h
- AUC (human, plasma, oral, 25 mg, 25 mg once daily, steady state, Study .4, fasted, read-out: AUCτ,ss gMean): 4.64 µM·h
- Cmax (human, plasma, oral, 25 mg, 25 mg once daily, steady state, Study .4, fasted, read-out: Cmax,ss Mean): 687 nM
- Cmax (human, plasma, oral, 25 mg, 25 mg once daily, steady state, Study .4, fasted, read-out: Cmax,ss Median): 671 nM
Structure (SMILES): OC[C@H]1O[C@@H](c2ccc(Cl)c(Cc3ccc(O[C@H]4CCOC4)cc3)c2)[C@H](O)[C@@H](O)[C@@H]1O [Compound (I.9), 1-chloro-4-(β-D-glucopyranos-1-yl)-2-[4-((S)-tetrahydrofuran-3-yloxy)-benzyl]-benzene]
